Source: patent US20170152258A9, “Substituted Pyridopyrazines as Syk Inhibitors” (HUTCHISON MEDIPHARMA LIMITED, priority 2012, published 2017)

Columns and labels:
Syk kinase = Syk kinase (Homo sapiens, UniProt P43405); test: SYK Enzymatic Assay (Z-LYTE Tyr 2 peptide); assay type: biochemical; settings: 8 concentrations 1 μM down to 0.0003 μM
Summary of the method: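 Z-LYTE format using Tyr 2 peptide. After the 1 h room-temperature kinase reaction, development reagent was added for 1 h, then stop reagent. Fluorescence was read at 445 and 520 nm. Compounds were tested at 8 concentrations, 1 μM down to 0.0003 μM (1:3 dilutions).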

RBL-2H3 cells = test: IgE-induced Beta-hexosaminidase secretion in RBL-2H3 cells; assay type: cell-based; settings: Rattus norvegicus, RBL-2H3, IgE-induced Beta-hexosaminidase secretion, DNP-BSA stimulation
Summary of the method: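 RBL-2H3 cells sensitized overnight with 0.5 ug/ml SPE-7 IgE, washed, preincubated with compound 20 min at 37° C, then stimulated with DNP-BSA (150 ng/mL stock) for 45 min. Released β-hexosaminidase measured on supernatant with 1 mM 4-nitrophenyl N-acetyl-β-D-glucosaminide, pH 4.5, 1.5 hr at 37° C; absorbance 405 nm after carbonate quench.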

| SMILES | IC50 (Syk kinase) [nM] | IC50 (RBL-2H3 cells) [nM] |
| --- | --- | --- |
| CNC(=O)N1CCO[C@H](COc2nc(-c3ccc(N(C)C)c(Cl)c3)cc3nccnc23)C1 [Compound 166] | 52 | 71 |
| C[C@@H](O)C(=O)N1CCO[C@H](COc2nc(-c3ccc(N(C)C)cc3)cc3nccnc23)C1 [Compound 196] | 67 | 128 |
| CN(C)c1ccc(-c2cc3nccnc3c(OC[C@@H]3CN(C(=O)Cc4c[nH]cn4)CCO3)n2)cc1 [Compound 84] | 81 | 316 |
| O=C(C(F)F)N1CCO[C@H](COc2nc(-c3ccc(C4CCOCC4)cc3)cc3nccnc23)C1 [Compound 9] | 98 | 127 |
| Cc1cc(-c2cc3nccnc3c(OC[C@@H]3CN(C(=O)[C@@H](C)O)CCO3)n2)ccc1N(C)C [Compound 200] | 51 | 133 |
| CC(=O)N1CCC(c2ccc(-c3cc4nccnc4c(O[C@@H]4CCOC4)n3)cc2)CC1 [Compound 156] | 38 | 32 |
| CS(=O)(=O)N1CCO[C@H](COc2nc(-c3ccc(C4(O)CCOCC4)cc3)cc3nccnc23)C1 [Compound 314] | 43 | 117 |
| CCC(O)(CC)c1ccc(-c2cc3nccnc3c(OC[C@@H]3CN(C(N)=O)CCO3)n2)cc1 [Compound 281] | 65 | 663 |
| CCc1ccc(-c2cc3nccnc3c(OC[C@@H]3CN(C(=O)NC)CCO3)n2)cc1 [Compound 222] | 84 | 105 |
| CC1(C)OCc2cc(-c3cc4nccnc4c(OC[C@@H]4CN(S(C)(=O)=O)CCO4)n3)ccc21 [Compound 299] | 14 | 47 |
| CS(=O)(=O)N1CCC(c2ccc(-c3cc4nccnc4c(OC[C@@H]4CN(S(C)(=O)=O)CCO4)n3)cc2)CC1 [Compound 57, (S)-4-(methylsulfonyl)-2-((7-(4-(1-(methylsulfonyl)piperidin-4-yl)phenyl)pyrido[4,3-b]pyrazin-5-yloxy)methyl)morpholine] | 14 | 82 |

Continued by falling IC50 (Syk kinase), values first:

| IC50 (Syk kinase) [nM] | IC50 (RBL-2H3 cells) [nM] | SMILES |
| --- | --- | --- |
| 71 | 122 | CS(=O)(=O)N1CCO[C@H](COc2nc(-c3ccc(N4CCOCC4)c(F)c3)cc3nccnc23)C1 [Compound 7] |
| 67 | 155 | CCS(=O)(=O)N1CCN(c2ccc(-c3cc4nccnc4c(OC[C@@H]4CN(C(C)=O)CCO4)n3)cc2)CC1 [Compound 25] |
| 44 | 1090 | CC(C)(O)c1ccc(-c2cc3nccnc3c(OC[C@@H]3CN(C(N)=O)CCO3)n2)cc1 [Compound 266] |
| 43 | 78 | CN(C)c1ccc(-c2cc3nccnc3c(O[C@@H]3CCOC3)n2)cc1Cl [Compound 154] |
| 27 | 64 | CC(=O)N1CCC(c2ccc(-c3cc4nccnc4c(OC[C@@H]4CN(S(C)(=O)=O)CCO4)n3)cc2)CC1 [Compound 33] |
| 23 | 400 | CC(C)(O)c1ccc(-c2cc3nccnc3c(OC[C@@H]3CN(S(N)(=O)=O)CCO3)n2)cc1 [Compound 263] |
| 13 | 20 | CN1CCCc2cc(-c3cc4nccnc4c(OC[C@@H]4CN(S(N)(=O)=O)CCO4)n3)ccc21 [Compound 208] |
